The record followed here is article PMC10964573, “OCTN2- and ATB^0,+-targeted nanoemulsions for improving ocular drug delivery” (Journal of Nanobiotechnology, 2024).

This series can be described thus: Solubility of DEX in oils (shake flask). The following applies: Labrafil M1944 CS versus medium-chain triglycerides, soybean oil, olive oil; 37 °C, 72 h. The format is physicochemical. As to the method: The solubility of drug in oils is the basis for the selection of the oil phase. The solubility of DEX in various oils, including medium-chain triglycerides, soybean oil, olive oil, and Labrafil® M1944 CS was determined by the shake flask method. Briefly, an excessive amount of DEX was added to 1mL of oil in an Eppendorf tube and mixed in a water bath sonication. Then the tubes were placed in a water bath shaker at 37 ± 0.5 °C. After shaking for 72 h, the samples were centrifuged at 10,000 rpm for 10 min. The supernatant was extracted with ethanol solution by sonicating for 20 min and centrifuging at 10,000 rpm for 10 min. The DEX concentration in the supernatant was determined by high-performance liquid chromatography. […] Next, the effect of the amount of Labrafil® M1944 CS content on the physicochemical properties of the DEX NEs was screened (Table S1). When the amount of Labrifil® M 1944 CS was 50 mg, DEX NEs had higher drug content (0.64±0.003mg/mL) and EE (91.3±2.8%), and this formulation was selected to further prepare DEX SC-NEs.

“Also recorded” adds a separate entry of the source.

Take `C[C@@H]1C[C@H]2[C@@H]3CCC4=CC(=O)C=C[C@]4(C)[C@@]3(F)[C@@H](O)C[C@]2(C)[C@@]1(O)C(=O)CO` [DEX, Dexamethasone]: the solubility in oil entry is reported as “high solubility; also recorded: highest”.
